According to ChEMBL document CHEMBL1201862, “PubChem BioAssay data set” (2004):
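Exposure lasted 48 hours, with cells grown in 96-well plates and compounds tested at five concentrations. At the GI50, growth is halved.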 Active and inactive are the calls of the source. Cut-off read from the data, not from the text of the source: active = GI50 up to about 1.1 µM and inactive = higher.

Legend:
Test in all cases: inhibition of tumour cell growth, NCI panel, 48 h
[1] = system: M14
[2] = system: SK-MEL-5
[3] = system: NCI-H23
[4] = system: T47D
[5] = system: NCI-H522
[6] = system: HCT-116
[7] = system: U-251
[8] = system: LOX IMVI
[9] = system: CAKI-1
[10] = system: Malme-3M
[11] = system: A549
[12] = system: SK-OV-3
[13] = system: COLO 205
[14] = system: SW-620
[15] = system: UACC-62
[16] = system: SK-MEL-2
[17] = system: HCC 2998
[18] = system: SNB-75
[19] = system: HL-60

Measured: GI50

CCCCCCCCCCCCCCC(O)C[N+](C)(CCO)CCO (stereo unspecified)
inactive: [1] 1.59 µM | [2] 4.06 µM | [3] 4.49 µM | [4] 8.07 µM | [5] 1.64 µM | [6] 5.79 µM | [7] 1.53 µM | [8] 1.48 µM | [9] 1.32 µM | [10] 2.06 µM | [11] 10.2 µM | [12] 12.9 µM | [13] 1.72 µM | [14] 6.22 µM | [15] 2.47 µM | [16] 7.31 µM | [17] 1.73 µM
active: [18] 0.746 µM | [19] 0.585 µM

O=C1CSC(c2ccccc2O)N1c1nc2cc3sc(N4C(=O)CSC4c4ccccc4O)nc3cc2s1 (stereo unspecified)
inactive: [1] > 69.5 µM | [2] 50.5 µM | [3] 9.57 µM | [4] 47.8 µM | [5] 7.06 µM | [6] 20.7 µM | [7] 36.3 µM | [8] 24 µM | [9] 37.4 µM | [10] > 77.3 µM | [11] 3.85 µM | [12] > 100 µM | [13] 3.61 µM | [14] 22.4 µM | [15] > 87.5 µM | [16] > 100 µM | [17] > 100 µM | [18] 99.8 µM | [19] 31.6 µM

Cc1cccc(Nc2nc3ccccc3nc2NS(=O)(=O)c2ccccc2)c1
active: [17] 0.721 µM
inactive: [1] 38.3 µM | [2] 19.4 µM | [3] 18.3 µM | [4] 18.5 µM | [5] 17.3 µM | [6] 27.4 µM | [7] 14.6 µM | [8] 45.4 µM | [9] 44.1 µM | [10] 17.1 µM | [11] 14.1 µM | [12] 25.2 µM | [13] 16.1 µM | [14] 29.6 µM | [15] 25.6 µM | [16] 14.3 µM | [18] 14.4 µM | [19] 13.8 µM

CCOC(=O)c1c(N2CCOCC2)[nH]c(=O)c(C(c2c(O)c(C(=O)OCC)c(N3CCOCC3)[nH]c2=O)C(C)C)c1O
inactive: [1] > 100 µM | [2] > 100 µM | [3] > 100 µM | [4] > 100 µM | [5] > 100 µM | [6] > 100 µM | [7] > 100 µM | [8] > 100 µM | [9] > 100 µM | [10] > 100 µM | [11] > 100 µM | [12] 86.5 µM | [13] > 100 µM | [14] > 100 µM | [15] > 100 µM | [16] > 100 µM | [17] > 100 µM | [18] 22.4 µM | [19] > 100 µM

O=c1[nH][nH]c(=O)n1Cc1cccc(Cn2c(=O)[nH][nH]c2=O)c1
inactive: [1] > 100 µM | [2] > 100 µM | [3] > 100 µM | [4] > 100 µM | [5] > 100 µM | [6] > 100 µM | [7] > 100 µM | [8] > 100 µM | [9] > 100 µM | [10] > 100 µM | [11] > 100 µM | [12] > 100 µM | [13] > 100 µM | [14] > 100 µM | [15] > 100 µM | [16] > 100 µM | [17] > 100 µM | [18] > 100 µM | [19] > 100 µM

Cc1ccccc1NC(=O)O/N=C(\Cl)C(C)C
inactive: [1] 3.22 µM | [2] 11 µM | [3] 16.7 µM | [4] 3.79 µM | [5] 1.68 µM | [6] 2.18 µM | [7] 19.4 µM | [8] 1.55 µM | [9] 1.77 µM | [10] 2.36 µM | [11] 19.1 µM | [12] 18.7 µM | [13] 1.75 µM | [14] 1.82 µM | [15] 14.9 µM | [16] 17.8 µM | [17] 17.3 µM | [18] 17.1 µM | [19] 2.46 µM

C=C(C(=O)OC)c1cc2ccccc2n1S(=O)(=O)c1ccccc1
inactive: [1] 2.67 µM | [2] 2.14 µM | [3] 3.44 µM | [4] 1.7 µM | [6] 6.55 µM | [7] 1.92 µM | [8] 2.43 µM | [10] 2.11 µM | [11] 3.05 µM | [12] 11.3 µM | [13] 1.95 µM | [14] 2.09 µM | [15] 4.52 µM | [16] 2.53 µM | [17] 4 µM | [18] 3.3 µM | [19] 1.87 µM
active: [5] 0.891 µM | [9] 0.82 µM

NCCCN(CCCN)CCc1cn(C(=O)c2ccccc2)cn1
inactive: [1] 4.94 µM | [2] 7 µM | [3] 13.2 µM | [4] 4.85 µM | [5] 10 µM | [6] 4.86 µM | [7] 14.4 µM | [8] 11.6 µM | [9] 4.46 µM | [10] 14.7 µM | [11] 9.46 µM | [12] 11.2 µM | [13] 3.14 µM | [14] 10.2 µM | [15] 8.57 µM | [16] 9.1 µM | [17] 4.52 µM | [18] 6.07 µM | [19] 3.84 µM

O=C1N[C@H]2C(=O)c3c(Cl)sc(Cl)c3[C@H]2O1
inactive: [1] 6.28 µM | [2] 18.1 µM | [3] 5.94 µM | [4] 11.6 µM | [5] 3.13 µM | [6] 3.66 µM | [7] 3.32 µM | [8] 2.7 µM | [9] 4.79 µM | [10] 14.3 µM | [11] 19.5 µM | [12] 15.5 µM | [13] 6.52 µM | [14] 2.18 µM | [15] 13.3 µM | [16] 19.5 µM | [17] 1.94 µM | [18] 15.5 µM | [19] 2.18 µM

COc1cc2c(c(OC)c1OC)C(=O)[C@@H]1[C@H]2N1C(=O)NCCCl
inactive: [1] 50.4 µM | [2] 46.8 µM | [3] 43.4 µM | [4] 48.3 µM | [5] 49.2 µM | [6] 41.7 µM | [7] 37.1 µM | [8] 39.3 µM | [9] 56.8 µM | [10] 64.7 µM | [11] 58.2 µM | [12] > 100 µM | [13] 27 µM | [14] > 100 µM | [15] 61.4 µM | [16] > 100 µM | [17] > 100 µM | [18] 40.9 µM | [19] 29.2 µM

Cc1c(-c2ccc(O)cc2)n(CCCCCCNCCOC(=O)NCCCc2ccc(N(CCCl)CCCl)cc2)c2ccc(O)cc12
inactive: [1] 1.59 µM | [2] 1.96 µM | [3] 1.78 µM | [5] 1.69 µM | [6] 1.52 µM | [7] 3.07 µM | [8] 1.5 µM | [9] 11.1 µM | [10] 1.6 µM | [11] 1.88 µM | [12] 10.2 µM | [13] 2.64 µM | [14] 2.15 µM | [15] 1.79 µM | [16] 10.6 µM | [17] 1.86 µM | [18] 1.98 µM | [19] 1.44 µM
active: [4] 0.0552 µM

CN1CCN([C@H]2C[C@H]3[C@@H]4CC=C5C[C@@H](N6CCCC6)CC[C@]5(C)[C@H]4CC[C@]3(C)[C@H]2O)CC1
inactive: [1] 15.6 µM | [2] 18.8 µM | [3] > 100 µM | [4] > 100 µM | [5] > 100 µM | [6] 22 µM | [7] 59.2 µM | [8] 19.6 µM | [9] > 10 µM | [10] 19.9 µM | [11] 37.8 µM | [12] > 100 µM | [13] 12.6 µM | [14] 33.4 µM | [15] 67.3 µM | [16] > 100 µM | [17] 33.3 µM | [18] > 100 µM | [19] 21.2 µM

C[n+]1c(-c2ccc(NC(=O)c3ccc(C(=O)Nc4ccc(-c5cn6ccccc6[n+]5C)cc4)cc3)cc2)cn2ccccc21
inactive: [1] > 100 µM | [2] 43.1 µM | [3] > 100 µM | [4] > 100 µM | [5] > 100 µM | [6] > 100 µM | [7] > 73.3 µM | [8] > 100 µM | [9] > 100 µM | [10] 56.5 µM | [11] > 100 µM | [12] > 100 µM | [13] > 56.2 µM | [14] > 100 µM | [15] > 100 µM | [16] > 100 µM | [17] > 100 µM | [18] 60.8 µM | [19] 23.4 µM

COc1ccc(-c2cc(=O)c3c(OC)c(OC)c(OC)cc3o2)cc1
inactive: [1] 54.8 µM | [2] 13.2 µM | [3] 40.6 µM | [4] 17.8 µM | [5] 23.7 µM | [6] 32.6 µM | [7] 26.3 µM | [8] 28.2 µM | [9] 68.7 µM | [10] 38 µM | [11] 27.1 µM | [12] 24.3 µM | [13] 22.1 µM | [14] 36.8 µM | [15] 27.5 µM | [16] 21.1 µM | [17] 16.8 µM | [18] 26.9 µM | [19] 11.7 µM
